Experimental data from ChEMBL document CHEMBL1649250, “Susceptibility of urinary tract bacteria to fosfomycin” (2009).
Active and inactive are the calls of the source. The rule behind the calls is not given here.

Assays:
Klebsiella pneumoniae [1] = assay: Antimicrobial activity against cefotaxime-, ceftriaxone-, cefepime-, ceftazidime-, and aztreonam-nonsusceptible Klebsiella pneumoniae assessed as percent susceptible isolates by disk diffusion method; format: functional
Klebsiella pneumoniae [2] = assay: Antimicrobial activity against […] producing Klebsiella pneumoniae assessed as percent susceptible isolates by disk diffusion method; format: functional
Klebsiella oxytoca = assay: Antimicrobial activity against […] producing Klebsiella oxytoca assessed as percent susceptible isolates by disk diffusion method; format: functional
Pseudomonas aeruginosa [3] = assay: Antimicrobial activity against cefotaxime-, ceftriaxone-, cefepime-, ceftazidime-, and aztreonam-nonsusceptible Pseudomonas aeruginosa assessed as percent susceptible isolates by disk diffusion method; format: functional
Enterococcus faecalis = assay: Antimicrobial activity against Enterococcus faecalis obtained from urine sample of patient assessed as percent susceptible isolates by disk diffusion method; format: functional
Klebsiella pneumoniae [4] = assay: Antimicrobial activity against carbapenemase-nonsusceptible Klebsiella pneumoniae assessed as percent susceptible isolates by disk diffusion method; format: functional
Pseudomonas aeruginosa [5] = assay: Antimicrobial activity against Pseudomonas aeruginosa obtained from urine sample of patient assessed as percent susceptible isolates by disk diffusion method; format: functional
Salmonella sp. = assay: Antimicrobial activity against Salmonella sp. obtained from urine sample of patient assessed as percent susceptible isolates by disk diffusion method; format: functional
Enterococcus faecium = assay: Antimicrobial activity against Enterococcus faecium obtained from urine sample of patient assessed as percent susceptible isolates by disk diffusion method; format: functional
Escherichia coli [6] = assay: Antimicrobial activity against […] producing Escherichia coli assessed as percent susceptible isolates by disk diffusion method; format: functional
Serratia marcescens = assay: Antimicrobial activity against Serratia marcescens obtained from urine sample of patient assessed as percent susceptible isolates by disk diffusion method; format: functional
Pseudomonas aeruginosa [7] = assay: Antimicrobial activity against carbapenemase-nonsusceptible Pseudomonas aeruginosa assessed as percent susceptible isolates by disk diffusion method; format: functional
Klebsiella pneumoniae [8] = assay: Antimicrobial activity against Klebsiella pneumoniae obtained from urine sample of patient assessed as percent susceptible isolates by disk diffusion method; format: functional
Klebsiella pneumoniae [9] = assay: Antimicrobial activity against colistin-nonsusceptible Klebsiella pneumoniae assessed as percent susceptible isolates by disk diffusion method; format: functional
Staphylococcus aureus = assay: Antimicrobial activity against Staphylococcus aureus obtained from urine sample of patient assessed as percent susceptible isolates by disk diffusion method; format: functional
[10] = tested on: Stenotrophomonas maltophilia; assay: Antimicrobial activity against Stenotrophomonas maltophilia obtained from urine sample of patient assessed as percent susceptible isolates by disk diffusion method; format: functional
Escherichia coli [11] = assay: Antimicrobial activity against cefotaxime-, ceftriaxone-, cefepime-, ceftazidime-, and aztreonam-nonsusceptible Escherichia coli assessed as percent susceptible isolates by disk diffusion method; format: functional
Escherichia coli [12] = assay: Antimicrobial activity against Escherichia coli obtained from urine sample of patient assessed as percent susceptible isolates by disk diffusion method; format: functional
Streptococcus agalactiae = assay: Antimicrobial activity against Streptococcus agalactiae obtained from urine sample of patient assessed as percent susceptible isolates by disk diffusion method; format: functional
[13] = tested on: Staphylococcus saprophyticus; assay: Antimicrobial activity against Staphylococcus saprophyticus obtained from urine sample of patient assessed as percent susceptible isolates by disk diffusion method; format: functional
Acinetobacter baumannii = assay: Antimicrobial activity against Acinetobacter baumannii obtained from urine sample of patient assessed as percent susceptible isolates by disk diffusion method; format: functional
[14] = tested on: Staphylococcus epidermidis; assay: Antimicrobial activity against Staphylococcus epidermidis obtained from urine sample of patient assessed as percent susceptible isolates by disk diffusion method; format: functional, organism-based
Enterobacter sp. [15] = assay: Antimicrobial activity against cefotaxime-, ceftriaxone-, cefepime-, ceftazidime-, and aztreonam-nonsusceptible Enterobacter sp. assessed as percent susceptible isolates by disk diffusion method; format: functional
Klebsiella pneumoniae [16] = assay: Antimicrobial activity against carbapenemase producing Klebsiella pneumoniae assessed as percent susceptible isolates by disk diffusion method; format: functional
Proteus mirabilis = assay: Antimicrobial activity against Proteus mirabilis obtained from urine sample of patient assessed as percent susceptible isolates by disk diffusion method; format: functional
Enterobacter sp. [17] = assay: Antimicrobial activity against Enterobacter sp. obtained from urine sample of patient assessed as percent susceptible isolates by disk diffusion method; format: functional

Q: With C[C@@H]1O[C@@H]1P(=O)(O)O [FOSFOMYCIN] as the compound, how does the Activity (Klebsiella pneumoniae [1]) read?
A: 75%

Q: What about the Activity (Klebsiella pneumoniae [2]) of the same compound?
A: 100%

Q: And the Activity (Klebsiella oxytoca)?
A: 0%

Q: And the Activity (Pseudomonas aeruginosa [3])?
A: 17%

Q: And the Activity (Enterococcus faecalis)?
A: 91.8%

Q: What about the Activity (Klebsiella pneumoniae [4]) of the same compound?
A: 60%

Q: What about the Activity (Pseudomonas aeruginosa [5]) of the same compound?
A: 85%

Q: And the Activity (Salmonella sp.)?
A: 66.6%

Q: What about the Activity (Enterococcus faecium) of the same compound?
A: 0%

Q: And the Activity (Escherichia coli [6])?
A: 100%

Q: What about the Activity (Serratia marcescens) of the same compound?
A: 66.6%

Q: And the Activity (Pseudomonas aeruginosa [7])?
A: 88.8%

Q: What about the Activity (Klebsiella pneumoniae [8]) of the same compound?
A: 82.3%

Q: What about the Activity (Klebsiella pneumoniae [9]) of the same compound?
A: 58.3%

Q: And the Activity (Staphylococcus aureus)?
A: 100%

Q: What about the Activity [10] of the same compound?
A: 66.6%

Q: And the Activity (Escherichia coli [11])?
A: 100%

Q: And the Activity (Escherichia coli [12])?
A: 100%

Q: What about the Activity (Streptococcus agalactiae) of the same compound?
A: 50%

Q: And the Activity [13]?
A: 100%

Q: And the Activity (Acinetobacter baumannii)?
A: 9%

Q: And the Activity [14]?
A: Active

Q: What about the Activity (Enterobacter sp. [15]) of the same compound?
A: 100%

Q: What about the Activity (Klebsiella pneumoniae [16]) of the same compound?
A: 60%

Q: And the Activity (Proteus mirabilis)?
A: 96.7%

Q: What about the Activity (Enterobacter sp. [17]) of the same compound?
A: 75%
